Measurements reported in ChEMBL document CHEMBL3407442, “Synthesis and biological evaluation of α-aryl-α-tetralone derivatives as hepatitis C virus inhibitors” (Eur J Med Chem, 2015).
pEC50: −log10 of the molar value.

Assays:
Hepatitis C virus [1] = assay: Antiviral activity against HCV genotype 1b infected in human Huh7/Rep-Feo1b replicon cells assessed as inhibition of viral viral RNA replication at 50 uM incubated for 48 hrs by luciferase reporter gene assay; format: functional, Hepacivirus hominis; settings: Huh-7, 48 h
Hepatitis C virus [2] = assay: Antiviral activity against HCV genotype 1b infected in human Huh7/Rep-Feo1b replicon cells assessed as inhibition of viral viral RNA replication incubated for 48 hrs by luciferase reporter gene assay; format: functional, cell-based, Hepacivirus hominis; settings: Huh-7, 48 h
[3] = Cytotoxicity against human Huh7.5 cells by MTS assay; format: cell-based, Huh-7
[4] = Selectivity index, ratio of CC50 for human Huh7.5 cells to EC50 for HCV genotype 1b infected in human Huh7/Rep-Feo1b replicon cells; parameters: species or system Huh-7
Hepatitis C virus [5] = assay: Antiviral activity against HCV genotype 2a infected in human Huh7.5-FGR-JC1-Rluc2A replicon cells assessed as inhibition of viral viral RNA replication at 50 uM incubated for 48 hrs by luciferase reporter gene assay; format: functional, Hepacivirus hominis; settings: Huh-7, 48 h
Hepatitis C virus [6] = assay: Antiviral activity against HCV genotype 2a infected in human Huh7.5-FGR-JC1-Rluc2A replicon cells assessed as inhibition of viral viral RNA replication incubated for 48 hrs by luciferase reporter gene assay; format: functional, cell-based, Hepacivirus hominis; settings: Huh-7, 48 h
[7] = Selectivity index, ratio of CC50 for human Huh7.5 cells to EC50 for HCV genotype 2a infected in human Huh7.5-FGR-JC1-Rluc2A replicon cells; parameters: species or system Huh-7

Row | SMILES | inhibition at 50 µM (Hepatitis C virus [1]) [%] | pEC50 (Hepatitis C virus [2]) | CC50 [3] [µM] | Ratio CC50/EC50 [4] | inhibition at 50 µM (Hepatitis C virus [5]) [%] | pEC50 (Hepatitis C virus [6]) | Ratio CC50/EC50 [7]
1 | COc1ccc(O)c2c1C(=O)C(c1ccccc1OCc1ccccc1)CC2 (centres undefined) | 99.1 | 5.21 | < 50 | <8 | 98 | 5.36 | <11.3
2 | COc1cccc2c1CCC(c1ccccc1O)C2=O (centres undefined) | 26.1 | – | 111 | – | 86 | 4.97 | 10.2
3 | COc1ccc2c(c1)CCC(c1ccc(OC)cc1OC)C2=O (centres undefined) | 89.5 | 5.12 | < 50 | <6.6 | 93.4 | 5.48 | <15.3
4 | COc1ccc(C2CCc3c(OC)cccc3C2=O)c(OC)c1 (centres undefined) | 96.5 | 4.89 | 104 | 8.2 | 99.5 | 5.49 | 32.6
5 | COc1ccccc1C1CCc2ccccc2C1=O (centres undefined) | 48.4 | 4.30 | 117 | 2.3 | 84.4 | 4.84 | 8.2
6 | COc1ccc(C2CCc3ccccc3C2=O)c(OC)c1 (centres undefined) | 55.6 | 4.35 | 63.6 | 1.4 | 83.9 | 4.96 | 5.7
7 | COc1ccc2c(c1)CCC(c1ccccc1OC)C2=O (centres undefined) | 86.4 | 4.97 | 152 | 14.3 | 88.8 | 5.82 | 101.4
8 | COc1ccc(C2CCc3c(OC)ccc(OC)c3C2=O)c(OC)c1 (centres undefined) | 73.8 | 5.09 | < 50 | <6 | 86.2 | 4.67 | <2.3
9 | COc1ccccc1C1CCc2c(OC)cccc2C1=O (centres undefined) | 51.7 | 4.31 | > 200 | >4.1 | 86.6 | 4.97 | >18.5
10 | COc1ccc(C2CCc3cc(OC)c(OC)cc3C2=O)c(OC)c1 (centres undefined) | 89.6 | 5.74 | > 200 | > 111 | 86.8 | 5.37 | >46.1
11 | COc1ccccc1C1CCc2c(OC)ccc(OC)c2C1=O (centres undefined) | 80.6 | 5.10 | > 200 | >24.9 | 88.8 | 5.17 | >29.5
12 | COc1cc2c(cc1OC)C(=O)C(c1ccccc1OC)CC2 (centres undefined) | 60.2 | 4.37 | 126 | 2.9 | 79.9 | 5.32 | 26.2
13 | COc1ccccc1C1CCc2c(O)ccc(OC)c2C1=O (centres undefined) | 41.2 | – | > 200 | – | 44 | – | –
14 | COc1ccc(C2CCc3ccc(OC)cc3C2=O)c(OC)c1 (centres undefined) | 95.2 | 4.84 | < 50 | <3.5 | 97.6 | 4.82 | <3.3
15 | COc1ccc2c(c1)C(=O)C(c1ccccc1OC)CC2 (centres undefined) | 85.4 | 4.53 | 111 | 3.7 | 91.8 | 5.44 | 30.8
